Assay results taken from patent US10301267B2, “Compounds” (AstraZeneca AB, priority 2006, dated 2019).

Assays:
FGFR1 active kinase [1] = molecular target: T1, FGFR1 active kinase (Homo sapiens, UniProt P11362); assay: FGFR Kinase assay - Caliper Echo Dosing; type: biochemical; details: FGFR1 7.2 nM, 408 uM ATP, acoustic dosing; geometric mean of n
Method: FGFR Kinase Assay—Caliper Echo Dosing
(§1) To determine inhibition of FGFR activity, kinase assays were conducted using Caliper technology.
(§2) Kinase activity assays were performed in Greiner 384-well low volume plates, with a total reaction volume of 12 ul per well. Final concentration of FGFR1 active kinase in each reaction well was 7.2 nM. The substrate for each assay was a custom peptide with fluorescent tag (13 amino acids in length, […] with the fluorescene tag on the first K).
Compounds were dispensed directly in to assay plates using a Labcyte Echo 550 acoustic droplet ejection unit. Each well received 120 nl of DMSO containing compound such that the final concentration of compound in the assay prior to the addition of the stop solution ranged between 30 uM and 30 pM. In addition to compounds each plate carried maximum and minimum control wells, the max wells contained 120 nl of DMSO and the min wells contained 120 nl of 10 mM staurosporine (LC Laboratories, MA 01801, USA Catalogue No. S-9300). The Enzyme (at 7.2 nM [final]) and Substrate (at 3.6 uM [final]) were added separately to the compound plates, in reaction buffer [comprising: 50 mM MOPS (Sigma, Catalogue No. M1254)—pH 6.5, 0.004% Triton (Sigma, Catalogue No. X-100), 2.4 mM DTT, 12 mM MgCl2, 408 uM ATP] resulting in a final DMSO concentration in the reaction mix of 1%.
(§3) Assay plates were incubated at room temperature for 1.5 h, before the reaction was stopped with the addition of buffer [comprising: 100 mM HEPES—pH7.5, 0.033% Brij-35 (Sigma Catalogue No. B4184), 0.22% Caliper Coating Reagent #3 (Caliper Life Sciences Catalogue No. 760050), 88 mM EDTA, 5% DMSO]. Stopped assay plates were then read using the Caliper LabChip® LC3000 (which uses microfludics to measure a shift in mobility between fluorescent labelled peptide and the FGFR1 kinase—phosphorylated form of this peptide).
In the assay, compounds were tested at a range of concentrations. […] Percentage inhibition at 1 uM, as expressed herein, is a calculated value based on the curve fit that was generated experimentally. From the fitted curve plot, the effect of compound at a concentration of 1 uM was calculated as a percentage inhibition. The IC50 is the concentration of compound, which inhibits FGFR1 kinase activity by 50% in the context of this assay. This value is calculated using a standard curve fitting software package Origin™.

FGFR1 active kinase [2] = molecular target: T1, FGFR1 active kinase; assay: FGFR Kinase assay - Caliper; type: biochemical; details: FGFR1 […], 408 uM ATP; mean of n as printed; read-out: FGFR Kinase assay - Caliper, IC50; also: 408 µM ATP
Method: FGFR Kinase Assay—Caliper
as §1, §2
Compounds were serially diluted in 5% (v/v) DMSO, before being added to assay plates. The Enzyme (at 7.2 nM [final]) and Substrate (at 3.6 uM [final]) were added separately to the compound plates, in reaction buffer [comprising: 50 mM MOPS (Sigma, Catalogue No. M1254)—pH 6.5, 0.004% Triton (Sigma, Catalogue No. X-100), 2.4 mM DTT, 12 mM MgCl2, 408 uM ATP] resulting in a final DMSO concentration in the reaction mix of 0.8%.
as §3
In the assay, compounds were tested at a range of concentrations.
Percentage inhibition at 1 uM, as expressed herein, is a calculated value based on the curve fit that was generated experimentally. From the fitted curve plot, the effect of compound at a concentration of 1 uM was calculated as a percentage inhibition. The IC50 is the concentration of compound, which inhibits FGFR1 kinase activity by 50% in the context of this assay.

T1 sequence (P11362 22-822): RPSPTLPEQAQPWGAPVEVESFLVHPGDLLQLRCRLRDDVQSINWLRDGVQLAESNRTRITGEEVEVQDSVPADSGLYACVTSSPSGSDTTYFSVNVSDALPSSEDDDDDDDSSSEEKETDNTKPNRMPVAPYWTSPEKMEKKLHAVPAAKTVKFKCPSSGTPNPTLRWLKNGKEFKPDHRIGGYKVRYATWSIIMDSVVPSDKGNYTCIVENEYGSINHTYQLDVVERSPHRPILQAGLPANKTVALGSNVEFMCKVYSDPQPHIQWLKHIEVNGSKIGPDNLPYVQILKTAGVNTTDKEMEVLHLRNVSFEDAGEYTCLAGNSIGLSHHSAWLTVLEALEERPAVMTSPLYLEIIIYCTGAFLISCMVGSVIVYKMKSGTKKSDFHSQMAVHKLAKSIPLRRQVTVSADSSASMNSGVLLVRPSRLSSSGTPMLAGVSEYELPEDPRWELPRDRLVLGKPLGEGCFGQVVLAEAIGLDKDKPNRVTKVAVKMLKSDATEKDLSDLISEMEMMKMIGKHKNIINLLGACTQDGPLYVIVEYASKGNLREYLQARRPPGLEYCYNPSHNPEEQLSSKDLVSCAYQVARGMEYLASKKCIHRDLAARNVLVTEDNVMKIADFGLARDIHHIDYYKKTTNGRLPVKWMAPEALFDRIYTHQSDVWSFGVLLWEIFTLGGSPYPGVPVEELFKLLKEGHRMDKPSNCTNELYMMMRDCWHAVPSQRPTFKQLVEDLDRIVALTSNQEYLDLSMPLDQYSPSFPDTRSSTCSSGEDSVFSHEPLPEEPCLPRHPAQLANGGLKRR

Structure (SMILES) | IC50 (FGFR1 active kinase [1]) | IC50 (FGFR1 active kinase [2])
COc1cc(COc2cc(NC(=O)c3cnc(Cl)cn3)[nH]n2)cc(OC)c1 [5-Chloro-N-[5-[(3,5-dimethoxyphenyl)methoxy]-2H-pyrazol-3-yl]pyrazine-2-carboxamide] | 60 nM | 
CN1CCN(c2ccc(C(=O)Nc3cc(CCc4ccc5c(c4)OCO5)n[nH]3)cc2)CC1 [Example 77, N-[5-(2-Benzo[1,3]dioxol-5-ylethyl)-2H-pyrazol-3-yl]-4-(4-methylpiperazin-1-yl)benzamide] |  | 140 nM
COc1ccc(OC)c(CCc2cc(NC(=O)c3ccc(N4CCN(C)CC4)cc3)[nH]n2)c1 [Example 78, N-[5-[2-(2,5-Dimethoxyphenyl)ethyl]-2H-pyrazol-3-yl]-4-(4-methylpiperazin-1-yl)benzamide] |  | 470 nM
COc1ccc(CCc2cc(NC(=O)c3ccc(N4CCN(C)CC4)cc3)[nH]n2)c(C)c1 [Example 79, N-[5-[2-(4-Methoxy-2-methyl-phenyl)ethyl]-2H-pyrazol-3-yl]-4-(4-methylpiperazin-1-yl)benzamide] |  | 200 nM
COc1cc(CCc2cc(NC(=O)c3ccc(I)cc3)[nH]n2)cc(OC)c1 [Example 82, N-[5-[2-(3,5-Dimethoxyphenyl)ethyl]-2H-pyrazol-3-yl]-4-iodo-benzamide] | 21 nM | 
COc1cc(CCc2cc(NC(=O)c3ccccc3NCc3cc(C)no3)n[nH]2)cc(OC)c1 [Example 83, N-[5-[2-(3,5-Dimethoxyphenyl)ethyl]-1H-pyrazol-3-yl]-2-[(3-methyl-1,2-oxazol-5-yl)methylamino]benzamide] |  | 1000 nM
COc1cc(CCc2cc(NC(=O)c3ccc(N4CCN(C)CC4)nn3)[nH]n2)cc(OC)c1 [Example 84, N-[5-[2-(3,5-Dimethoxyphenyl)ethyl]-2H-pyrazol-3-yl]-6-(4-methylpiperazin-1-yl)pyridazine-3-carboxamide] |  | 390 nM
COc1cccc(CCc2cc(NC(=O)c3ccc(N4CCN(S(C)(=O)=O)CC4)cc3)n[nH]2)c1 [Example 91, N-[5-[2-(3-Methoxyphenyl)ethyl]-1H-pyrazol-3-yl]-4-(4-methylsulfonylpiperazin-1-yl)benzamide] |  | 250 nM
COc1cc(CCc2cc(NC(=O)c3ccc(N4CCN5CCCCC5C4)cc3)[nH]n2)cc(OC)c1 (stereo not drawn) [Example 94, 4-(1,3,4,6,7,8,9,9a-Octahydropyrido[2,1-c]pyrazin-2-yl)-N-[5-[2-(3,5-dimethoxyphenyl)ethyl]-2H-pyrazol-3-yl]benzamide] |  | 81 nM
COc1cc(COc2cc(NC(=O)c3ccc(N4CCN(C)C(C)C4)s3)[nH]n2)cc(OC)c1 (stereo not drawn) [Example 97, N-[5-[(3,5-dimethoxyphenyl)methoxy]-2H-pyrazol-3-yl]-5-(3,4-dimethylpiperazin-1-yl)thiophene-2-carboxamide] | 0.46 nM | 
COc1cc(COc2cc(NC(=O)c3ccc(N4CCN5CCCCC5C4)cc3)[nH]n2)cc(OC)c1 (stereo not drawn) [Example 98, 4-(1,3,4,6,7,8,9,9a-octahydropyrido[2,1-c]pyrazin-2-yl)-N-[5-[(3,5-dimethoxyphenyl)methoxy]-2H-pyrazol-3-yl]benzamide] | 3 nM | 
COc1cc(CCc2cc(NC(=O)c3ccc(C4CCN(C5CC5)CC4)cc3)[nH]n2)cc(OC)c1 [Example 99, 4-(1-Cyclopropylpiperidin-4-yl)-N-[5-[2-(3,5-dimethoxyphenyl)ethyl]-2H-pyrazol-3-yl]benzamide] | 0.91 nM | 
COc1cc(COc2cc(NC(=O)c3ccc(N4C[C@@H](C)N[C@@H](C)C4)cc3)[nH]n2)cc(OC)c1 [Example 100, N-[5-[(3,5-dimethoxyphenyl)methoxy]-2H-pyrazol-3-yl]-4-[(3R,5S)-3,5-dimethylpiperazin-1-yl]benzamide] | 1.4 nM | 
COc1cc(COc2cc(NC(=O)c3ccc(N4CCN(C)C(C)C4)cc3)[nH]n2)cc(OC)c1 (stereo not drawn) [Example 101, N-[5-[(3,5-dimethoxyphenyl)methoxy]-2H-pyrazol-3-yl]-4-(3,4-dimethylpiperazin-1-yl)benzamide] | 21 nM | 
COc1cc(CCc2cc(NC(=O)c3ccc(N4CCN(C(=O)OC(C)(C)C)CC4)s3)[nH]n2)cc(OC)c1 [Example 102, tert-Butyl 4-[5-[[5-[2-(3,5-dimethoxyphenyl)ethyl]-2H-pyrazol-3-yl]carbamoyl]thiophen-2-yl]piperazine-1-carboxylate] | 28 nM | 
COc1cc(COc2cc(NC(=O)c3ccc(N4CCN5CCCC5C4)cc3)[nH]n2)cc(OC)c1 (stereo not drawn) [Example 104, 4-(3,4,6,7,8,8a-hexahydro-1H-pyrrolo[2,1-c]pyrazin-2-yl)-N-[5-[(3,5-dimethoxyphenyl)methoxy]-2H-pyrazol-3-yl]benzamide] | 1.3 nM | 

Now from value to compound:

IC50 (FGFR1 active kinase [1]) | IC50 (FGFR1 active kinase [2]) | Structure (SMILES)
5.3 nM |  | COc1cc(CCc2cc(NC(=O)c3ccc(CN(C)CC4CCCO4)cc3)n[nH]2)cc(OC)c1 (stereo not drawn) [Example 57, N-[5-[2-(3,5-Dimethoxyphenyl)ethyl]-1H-pyrazol-3-yl]-4-[(methyl-(oxolan-2-ylmethyl)amino)methyl]benzamide]
 | 40 nM | COc1cc(CCc2cc(NC(=O)c3ccc(N4CCN(C)C(C)C4)cc3)n[nH]2)cc(OC)c1 (stereo not drawn) [Example 81, N-[5-[2-(3,5-Dimethoxyphenyl)ethyl]-1H-pyrazol-3-yl]-4-(3,4-dimethylpiperazin-1-yl)benzamide]
 | 96 nM | COc1cc(CCc2cc(NC(=O)c3ccc(C(=O)N4CCN(C)CC4)cc3)n[nH]2)cc(OC)c1 [Example 86, N-[5-[2-(3,5-Dimethoxyphenyl)ethyl]-1H-pyrazol-3-yl]-4-(4-methylpiperazine-1-carbonyl)benzamide]
 | 0.4 nM | COc1cc(CCc2cc(NC(=O)c3ccc(N4CCN(C(C)C)CC4)cc3)n[nH]2)cc(OC)c1 [Example 87, N-[5-[2-(3,5-Dimethoxyphenyl)ethyl]-1H-pyrazol-3-yl]-4-(4-propan-2-ylpiperazin-1-yl)benzamide]
 | 9 nM | COc1cc(CCc2cc(NC(=O)c3ccc(N4CCN(C5CCC5)CC4)cc3)n[nH]2)cc(OC)c1 [Example 89, 4-(4-Cyclobutylpiperazin-1-yl)-N-[5-[2-(3,5-dimethoxyphenyl)ethyl]-1H-pyrazol-3-yl]benzamide]
 | 56 nM | COc1cc(CCc2cc(NC(=O)c3ccc(N4CCN(C(C)=O)CC4)cc3)n[nH]2)cc(OC)c1 [Example 90, 4-(4-Acetylpiperazin-1-yl)-N-[5-[2-(3,5-dimethoxyphenyl)ethyl]-1H-pyrazol-3-yl]benzamide]
 | 7.9 nM | COc1cc(CCc2cc(NC(=O)c3ccc(C4CCN(C)CC4)cc3)n[nH]2)cc(OC)c1 [Example 92, N-[5-[2-(3,5-Dimethoxyphenyl)ethyl]-1H-pyrazol-3-yl]-4-(1-methyl-4-piperidyl)benzamide]
 | 37 nM | COc1cc(CCc2cc(NC(=O)c3ccc(N4CCN5CCCC5C4)cc3)[nH]n2)cc(OC)c1 (stereo not drawn) [Example 93, 4-(3,4,6,7,8,8a-Hexahydro-1H-pyrrolo[2,1-c]pyrazin-2-yl)-N-[5-[2-(3,5-dimethoxyphenyl)ethyl]-2H-pyrazol-3-yl]benzamide]
 | 140 nM | COc1cc(CCc2cc(NC(=O)c3ccc(CN4CCN(C)CC4)cc3)n[nH]2)cc(OC)c1 [Example 95, N-[5-[2-(3,5-Dimethoxyphenyl)ethyl]-1H-pyrazol-3-yl]-4-[(4-methylpiperazin-1-yl)methyl]benzamide]
0.54 nM |  | COc1cc(CCc2cc(NC(=O)c3ccc(N4CC(C)N(C)C(C)C4)cc3)n[nH]2)cc(OC)c1 (stereo not drawn) [Example 96, N-[5-[2-(3,5-Dimethoxyphenyl)ethyl]-1H-pyrazol-3-yl]-4-(3,4,5-trimethylpiperazin-1-yl)benzamide]
0.94 nM |  | COc1cc(COc2cc(NC(=O)c3ccc(C4CCN(C)CC4)cc3)[nH]n2)cc(OC)c1 [Example 103, N-[5-[(3,5-dimethoxyphenyl)methoxy]-2H-pyrazol-3-yl]-4-(1-methylpiperidin-4-yl)benzamide]
